Reference: ChEMBL document CHEMBL1201862, “PubChem BioAssay data set” (2004)
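Assay format: 96-well plates, 48-hour exposure. GI50: concentration for 50% inhibition of growth.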 Activity calls are given as the source filed them. No stated cut-off is given here; in the data, active = GI50 up to about 1.1 µM and inactive = higher.

Columns and labels:
Experiment in all cases: NCI anticancer screen, dose series, 48 h
786-0 = tested on: 786-0
CAKI-1 = tested on: CAKI-1
EKVX = tested on: EKVX
HCT-116 = tested on: HCT-116
HCT-15 = tested on: HCT-15
HT-29 = tested on: HT-29
K562 = tested on: K562
Malme-3M = tested on: Malme-3M
NCI-H23 = tested on: NCI-H23
NCI-H460 = tested on: NCI-H460
OVCAR-8 = tested on: OVCAR-8
SK-MEL-2 = tested on: SK-MEL-2
SNB-19 = tested on: SNB-19
SR = tested on: SR
SW-620 = tested on: SW-620
TK-10 = tested on: TK-10
UO-31 = tested on: UO-31
MDA-MB-231 = tested on: MDA-MB-231
PC-3 = tested on: PC-3

Compound | GI50 (786-0) | GI50 (CAKI-1) | GI50 (EKVX) | GI50 (HCT-116) | GI50 (HCT-15) [µM] | GI50 (HT-29) | GI50 (K562) | GI50 (Malme-3M) | GI50 (NCI-H23) | GI50 (NCI-H460) | GI50 (OVCAR-8) | GI50 (SK-MEL-2) | GI50 (SNB-19) | GI50 (SR) | GI50 (SW-620) | GI50 (TK-10) | GI50 (UO-31) | GI50 (MDA-MB-231) | GI50 (PC-3)
O=C(/C=C(\O)C(=O)O)/C=C(\O)c1ccc(Cl)cc1 | > 100 µM (inactive) | > 100 µM (inactive) | > 100 µM (inactive) | > 100 µM (inactive) | > 100 | > 100 µM (inactive) | > 100 µM (inactive) | > 100 µM (inactive) | > 100 µM (inactive) | > 100 µM (inactive) | > 100 µM (inactive) | > 100 µM (inactive) | > 100 µM (inactive) | > 100 µM (inactive) | > 100 µM (inactive) | > 100 µM (inactive) | > 100 µM (inactive) | – | –
CN(C)c1ccc(/C=C2\CCc3ccccc3C2=O)cc1Br | > 100 µM (inactive) | 36.4 µM (inactive) | 99.5 µM (inactive) | 37.3 µM (inactive) | 71.1 | 33.1 µM (inactive) | 33.7 µM (inactive) | 42.8 µM (inactive) | 68.7 µM (inactive) | > 100 µM (inactive) | 41.1 µM (inactive) | 48.5 µM (inactive) | > 100 µM (inactive) | 29.2 µM (inactive) | 34.2 µM (inactive) | > 100 µM (inactive) | > 100 µM (inactive) | – | –
COc1ccc(C(=O)O)c2c(=O)c3ccccc3[nH]c12 | > 100 µM (inactive) | > 100 µM (inactive) | > 100 µM (inactive) | > 100 µM (inactive) | > 100 | > 100 µM (inactive) | > 100 µM (inactive) | > 100 µM (inactive) | > 100 µM (inactive) | > 100 µM (inactive) | > 100 µM (inactive) | > 100 µM (inactive) | > 100 µM (inactive) | > 100 µM (inactive) | > 100 µM (inactive) | > 100 µM (inactive) | > 100 µM (inactive) | – | –
COc1ccc(N2CC(=O)N(C(=O)COc3ccc(OCC(=O)N4C(=O)CN(c5ccc(OC)cc5)C4=S)cc3)C2=S)cc1 | > 100 µM (inactive) | > 100 µM (inactive) | 81.1 µM (inactive) | 24 µM (inactive) | > 100 | 57.9 µM (inactive) | 38.8 µM (inactive) | 4.47 µM (inactive) | 88.1 µM (inactive) | 59.2 µM (inactive) | – | > 100 µM (inactive) | > 100 µM (inactive) | – | > 100 µM (inactive) | > 100 µM (inactive) | > 100 µM (inactive) | > 100 µM (inactive) | > 100 µM (inactive)
O=C1c2c(O)cccc2C(C(=O)CCCCCC(=O)C2c3cccc(O)c3C(=O)c3c(O)cccc32)c2cccc(O)c21 | 10.6 µM (inactive) | 4.5 µM (inactive) | 0.957 µM (active) | 0.957 µM (active) | 1 | 4.49 µM (inactive) | 0.966 µM (active) | 2.39 µM (inactive) | 0.692 µM (active) | 0.586 µM (active) | 1.53 µM (inactive) | 1.03 µM (active) | 0.973 µM (active) | 1.79 µM (inactive) | 1.09 µM (active) | 3.82 µM (inactive) | 1.15 µM (inactive) | – | –
CC(=O)c1cccc(NC(=O)C(=O)Nn2c(N)nnc2N)c1 | > 100 µM (inactive) | > 100 µM (inactive) | > 100 µM (inactive) | > 100 µM (inactive) | > 100 | > 100 µM (inactive) | > 100 µM (inactive) | > 100 µM (inactive) | > 100 µM (inactive) | > 100 µM (inactive) | > 100 µM (inactive) | > 100 µM (inactive) | > 100 µM (inactive) | > 100 µM (inactive) | > 100 µM (inactive) | > 100 µM (inactive) | > 100 µM (inactive) | – | –
